According to article PMC8746696 (Molecules, 2021):
Like-named read-outs stand apart in the source and are kept apart here.

Legend:
TDP1 = TDP1 (Homo sapiens, UniProt Q9NUW8); test: Real-time fluorescence detection of TDP1 activity (FAM/BHQ1 oligonucleotide biosensor); type: biochemical
Source text: For real-time detection of TDP1 activity, we used the oligonucleotide biosensor based on the ability of TDP1 to remove fluorophore quenchers from the 3′-end of DNA [29]. The hexadecameric oligonucleotide carried 5(6)-carboxyfluorescein (FAM) at the 5′-end and fluorophore quencher BHQ1 (Black Hole Quencher-1) at the 3′-end. TDP1 inhibitors prevent the removal of fluorophore quenchers, thus reducing fluorescence intensity.
TDP1 activity was detected, as described by intensity measurement in a reaction of quencher removal from a fluorophore quencher–coupled DNA oligonucleotide catalyzed by TDP1. The reaction was carried out at different concentrations of inhibitors (the control samples contained 1% of DMSO). The reaction mixtures contained TDP1 buffer (50 mM Tris-HCl pH 8.0, 50 mM NaCl, and 7 mM β-mercaptoethanol), 50 nM biosensor, and an inhibitor being tested. Purified TDP1 (1.5 nM) triggered the reaction. The biosensor (5′-[FAM] AAC GTC AGGGTC TTC C [BHQ]-3′) was synthesized in the Laboratory of Nucleic Acid Chemistry at the Institute of Chemical Biology and Fundamental Medicine (Novosibirsk, Russia).
The reactions were incubated on a POLARstar OPTIMA fluorimeter (BMG LABTECH, GmbH, Ortenberg, Germany) to measure fluorescence every 60 s (ex. 485/em. 520 nm) during the linear phase (here, data from minute 0 to minute 8). The values of IC50 were determined using a six-point concentration response curve in a minimum of three independent experiments and were calculated using MARS Data Analysis 2.0 (BMG LABTECH, Ortenberg, Germany).

recombinant human TDP2 = molecular target: T1, recombinant human TDP2 (Homo sapiens, UniProt O95551); test: Gel-based TDP2 activity assay (removal of 5'-tyrosine from oligonucleotide, PAGE); type: biochemical; design: key to Tdp2 activity, c 200 µM / Tdp2 (inhibitor concentration 1 mM): TDP2 active (+); -: inactive (−); conditions: for Tdp2 activity, c 200 µM: c 200 µM (Table S3 head); for Tdp2 (inhibitor concentration 1 mM) / remaining activity at 1000 µM: inhibitor 1 mM; for remaining activity at 1000 µM: residual enzyme activity, read-out: TDP2 (Inhibitor Concentration 1 mM), residual activity of TDP2
T1 sequence (O95551 1-362): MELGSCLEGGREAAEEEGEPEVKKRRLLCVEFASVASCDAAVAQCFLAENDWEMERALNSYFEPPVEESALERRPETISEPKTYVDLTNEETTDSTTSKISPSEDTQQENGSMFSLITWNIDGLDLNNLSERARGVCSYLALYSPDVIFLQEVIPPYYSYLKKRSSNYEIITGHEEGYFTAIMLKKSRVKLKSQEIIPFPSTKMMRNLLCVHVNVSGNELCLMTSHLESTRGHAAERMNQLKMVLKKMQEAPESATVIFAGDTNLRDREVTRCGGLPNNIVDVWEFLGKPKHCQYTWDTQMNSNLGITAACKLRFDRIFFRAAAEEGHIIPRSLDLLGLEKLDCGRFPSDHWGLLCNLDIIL
Protocol: We investigated the activity against the TDP2 enzyme for compounds 4–10, 12–15, and 17–19 (Table 1). TDP2 was tested for its ability to eliminate tyrosine residue from the 5’-end of the oligonucleotide substrate. The TDP2 reaction products were separated under denaturing conditions in polyacrylamide gel (PAGE). […] Note that as different assays formats were used for TDP1 and TDP2 inhibition, the value of these assays cannot be directly compared. A paper on derivatives of usnic acid as effective TDP1 inhibitors and mild inhibitors of TDP2 was recently published. […] More inhibitors of this enzyme have also been reported in the literature. Obviously, further work for increasing activity against TDP2 is needed.
The oligonucleotide with tyrosine residue on the 5′-end (5′-tyrosine-AAC GTC AGG GTC TTC C-FAM-3′) was used for the TDP2 enzyme activity assay. The TDP2 reaction products were separated under denaturing conditions in polyacrylamide gel (PAGE). The reaction was performed in a final volume of 20 μL using 100 nM substrate incubated with 200 nM recombinant human TDP2 in the absence or presence of the inhibitor for 10 min at 37 °C in a buffer containing 50 mM Tris-HCl, pH 8.0, 50 mM NaCl, 7 mM β-mercaptoethanol. Reactions were terminated by the addition of gel loading buffer contained 10% formamide, 7 M carbamide, 0.1% xylene cyanol, and 0,1% bromophenol blue. The samples were heated at 90 °C for 7 min before loading on the gel. The reaction products were separated by electrophoresis in a 20% denaturing PAGE with 7 M carbamide. A Typhoon FLA 9500 phosphorimager (GE Healthcare) was used for gel scanning and imaging. Each experiment was carried out in three independent replicates. The data were analyzed with QuantityOne 4.6.7 software.

[1] = Intrinsic cytotoxicity, EZ4U assay, HeLa; conditions: human, HeLa cells
Protocol: (§1) Next, we examined the intrinsic cytotoxicity of the compounds on HeLa cervical cancer cells and human embryonic kidney derived cells HEK293A.
(§2) Cytotoxicity of the compounds to HeLa (human cervical cancer) and HEK293A (human embryonic kidney) cell lines was examined using the EZ4U Cell Proliferation and Cytotoxicity Assay (Biomedica, Vienna, Austria), according to the manufacturer’s protocols. The cells were grown in Iscove’s modified Dulbecco’s medium (IMDM) with 40 μg/mL gentamicin, 50 IU/mL penicillin, 50 μg/mL streptomycin (MP Biomedicals, Waltham, MA, USA), and 10% of fetal bovine serum (Biolot, Saint Petersburg, Russia) in a 5% CO2 atmosphere. After the formation of a 30–50%monolayer, the tested compounds were added to the medium. […] The volume of the added reagents was 1/100 of the total volume of the culture medium, and the amount of DMSO was 1% of the final volume. Control cells were grown in the presence of 1% DMSO. The cell culture was monitored for three days.

[2] = Intrinsic cytotoxicity, EZ4U assay, HEK293A; conditions: human, HEK293A cells
Protocol: as §1, §2

[3] = read-out: IC50 (Tdp1, Table S4)
[4] = concentration that inhibits the activity of the enzyme by 50%, read-out: TDP1 IC50

Chain of TDP1 (Q9NUW8 whole entry): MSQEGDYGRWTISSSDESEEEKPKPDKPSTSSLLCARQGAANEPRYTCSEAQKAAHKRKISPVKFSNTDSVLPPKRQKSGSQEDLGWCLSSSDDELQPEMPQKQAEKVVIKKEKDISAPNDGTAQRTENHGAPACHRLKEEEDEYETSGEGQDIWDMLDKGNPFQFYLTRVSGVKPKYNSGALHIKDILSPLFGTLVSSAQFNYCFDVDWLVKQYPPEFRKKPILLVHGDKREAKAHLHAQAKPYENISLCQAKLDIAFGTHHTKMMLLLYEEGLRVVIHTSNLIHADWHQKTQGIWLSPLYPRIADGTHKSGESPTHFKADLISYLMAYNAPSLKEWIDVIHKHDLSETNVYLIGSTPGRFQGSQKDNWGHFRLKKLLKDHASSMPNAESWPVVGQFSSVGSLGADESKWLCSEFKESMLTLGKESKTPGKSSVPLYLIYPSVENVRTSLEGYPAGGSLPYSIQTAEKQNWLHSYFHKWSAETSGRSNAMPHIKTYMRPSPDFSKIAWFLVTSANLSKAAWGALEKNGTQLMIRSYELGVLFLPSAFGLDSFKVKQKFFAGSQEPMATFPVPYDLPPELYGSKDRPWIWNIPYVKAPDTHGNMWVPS

Row | Structure (SMILES) | IC50 (TDP1; [3]) [nM] | Tdp2 activity, c 200 µM (recombinant human TDP2) | Tdp2 (inhibitor concentration 1 mM) (recombinant human TDP2) | melting point | IC50 (TDP1; [4]) [nM] | remaining activity at 1000 µM (recombinant human TDP2) [%] | CC50 at 72 h [1] [nM] | CC50 at 72 h [2] [nM]
1 | C[C@H](CCC(=O)O)[C@H]1CC[C@H]2[C@@H]3CC[C@@H]4C[C@H](OCc5ccccc5)CC[C@]4(C)[C@H]3C[C@H](OCc3ccccc3)[C@]12C [Compound 1, 3α,12α-Dibenzyloxy-5β-cholan-24-oic acid] | 440 | + | + | 181.2 °C (dec.) |  |  |  | 
2 | C[C@H](CCC(=O)O)[C@H]1CC[C@H]2[C@@H]3CC[C@@H]4C[C@H](OCc5ccccc5)CC[C@]4(C)[C@H]3C[C@H](O)[C@]12C [Compound 2, 3α-Benzyloxy-12α-hydroxy-5β-cholan-24-oic Acid] | 18300 | + | + | 86 °C (dec.) |  |  |  | 
3 | C[C@H](CCC(=O)O)[C@H]1CC[C@H]2[C@@H]3CC[C@@H]4C[C@H](OCc5ccccc5)CC[C@]4(C)[C@H]3CC(=O)[C@]12C [Compound 3, 3α-Benzyloxy-12α-oxo-5β-cholan-24-oic Acid] | 780 | + | + | 147.9 °C |  |  |  | 
4 | C[C@H](CCC(=O)NCCc1c[nH]c2ccccc12)[C@H]1CC[C@H]2[C@@H]3CC[C@@H]4C[C@H](OCc5ccccc5)CC[C@]4(C)[C@H]3C[C@H](OCc3ccccc3)[C@]12C [Compound 4, N-(2″-(1H-Indol-3′-yl)ethyl)-3α,12α-dibenzyloxy-5β-cholane-24-amide] |  | + | + |  | 750 ± 170 | 35 ± 4 | > 100000 | > 100000
5 | C[C@H](CCC(=O)NCCc1c[nH]c2ccccc12)[C@H]1CC[C@H]2[C@@H]3CC[C@@H]4C[C@H](OCc5ccccc5)CC[C@]4(C)[C@H]3CC(=O)[C@]12C [Compound 6, N-(2″-(1H-Indol-3′-yl)ethyl)-3α-benzyloxy-12-oxo-5β-cholane-24-amide] |  | + | + |  | 590 ± 130 | 45 ± 4 | > 100000 | > 100000
6 | C[C@H](CCC(=O)Nc1ccc(Br)cc1)[C@H]1CC[C@H]2[C@@H]3CC[C@@H]4C[C@H](OCc5ccccc5)CC[C@]4(C)[C@H]3C[C@H](OCc3ccccc3)[C@]12C [Compound 7, N-(4′-Bromophenyl)-3α,12α-dibenzyloxy-5β-cholane-24-amide] |  | + | + | 186.2 to 191.3 °C | 970 ± 460 | 44 ± 5 |  | 
7 | C[C@H](CCC(=O)Nc1ccc(Br)cc1)[C@H]1CC[C@H]2[C@@H]3CC[C@@H]4C[C@H](OCc5ccccc5)CC[C@]4(C)[C@H]3CC(=O)[C@]12C [Compound 9, N-(4′-Bromophenyl)-3α-benzyloxy-12-oxo-5β-cholane-24-amide] |  | + | + |  | 710 ± 340 | 39 ± 6 | > 100000 | > 100000
8 | C[C@H](CCC(=S)Nc1ccc(Br)cc1)[C@H]1CC[C@H]2[C@@H]3CC[C@@H]4C[C@H](OCc5ccccc5)CC[C@]4(C)[C@H]3C[C@H](OCc3ccccc3)[C@]12C [Compound 11, N-(4′-Bromophenyl)-3α,12α-dibenzyloxy-5β-cholane-24-thioamide] |  |  |  | 58 °C (dec.) |  |  |  | 
9 | C[C@H](CCC(=O)O/N=C(\N)Cc1ccc(Br)cc1)[C@H]1CC[C@H]2[C@@H]3CC[C@@H]4C[C@H](OCc5ccccc5)CC[C@]4(C)[C@H]3C[C@H](OCc3ccccc3)[C@]12C [Compound 12] |  | + | + | 80.2 to 83.9 °C | 320 ± 130 | < 50 |  | 
10 | C[C@H](CCc1nc(Cc2ccc(Br)cc2)no1)[C@H]1CC[C@H]2[C@@H]3CC[C@@H]4C[C@H](OCc5ccccc5)CC[C@]4(C)[C@H]3C[C@H](OCc3ccccc3)[C@]12C [Compound 13, 5′-(24-Nor-3α,12α-dibenzyloxy-5β-cholan-23-yl)-3′-(methyl(4″-bromophenyl))-1′,2′,4′-oxadiazole] |  | - | - |  | 530 ± 230 | > 50 |  | 
11 | C[C@H](CCC(=O)O/N=C(\N)c1ccc(Br)cc1)[C@H]1CC[C@H]2[C@@H]3CC[C@@H]4C[C@H](OCc5ccccc5)CC[C@]4(C)[C@H]3C[C@H](OCc3ccccc3)[C@]12C [Compound 14] |  | + | + | 144.5 to 147.4 °C | 330 ± 150 | < 50 |  | 
12 | C[C@H](CCc1nc(-c2ccc(Br)cc2)no1)[C@H]1CC[C@H]2[C@@H]3CC[C@@H]4C[C@H](OCc5ccccc5)CC[C@]4(C)[C@H]3C[C@H](OCc3ccccc3)[C@]12C [Compound 15, 5′-(24-Nor-3α,12α-Dibenzyloxy-5β-cholan-23-yl)-3′-(4″-bromophenyl)-1′,2′,4′-oxadiazole] |  | - | - | 130.2 to 135.5 °C | 420 ± 300 | > 50 |  | 
13 | COC(=O)CC[C@@H](C)[C@H]1CC[C@H]2[C@@H]3CC[C@@H]4C[C@H](OCc5ccccc5)CC[C@]4(C)[C@H]3C[C@H](OCc3ccccc3)[C@]12C [Compound 16, Methyl 3α,12α-Dibenzyloxy-5β-cholan-24-oate] |  | - | - | 93.3 to 93.7 °C |  |  |  | 
14 | C[C@H](CCC(=O)NN)[C@H]1CC[C@H]2[C@@H]3CC[C@@H]4C[C@H](OCc5ccccc5)CC[C@]4(C)[C@H]3C[C@H](OCc3ccccc3)[C@]12C [Compound 17, 3α,12α-Dibenzyloxy-5β-cholan-24-hydrazide] |  | + | + | 179 to 180 °C | 230 ± 80 | > 50 |  | 
15 | C[C@H](CCC(=O)N/N=C/c1ccc(Br)cc1)[C@H]1CC[C@H]2[C@@H]3CC[C@@H]4C[C@H](OCc5ccccc5)CC[C@]4(C)[C@H]3C[C@H](OCc3ccccc3)[C@]12C [Compound 18, N’-(4″-Bromobenzylidene)-3α,12α-dibenzyloxy-5β-cholan-24-hydrazide] |  | + | + | 147.7 to 150 °C | 510 ± 210 | < 50 |  | 
16 | C[C@H](CCc1nnc(-c2ccc(Br)cc2)o1)[C@H]1CC[C@H]2[C@@H]3CC[C@@H]4C[C@H](OCc5ccccc5)CC[C@]4(C)[C@H]3C[C@H](OCc3ccccc3)[C@]12C [Compound 19, 2′-(24-Nor-3α,12α-dibenzyloxy-5β-cholan-23-yl)-5′-(4″-bromophenyl)-1′,3′,4′-oxadiazole] |  |  |  | 131.4 °C (dec.) | 1010 ± 430 | < 50 |  | 
